Key:
PI3K delta = target: T1, PI3K delta (Homo sapiens, UniProt O00329); test: PI3K delta kinase assay (Kinase-Glo luminescence); assay type: biochemical
T1 construct: for the full-length p110-d subunit are generated and fused by overlapping PCR; p85(iSH2) fusion partner (see partner chain) (N); His tag (C); made in house; host or cells: baculovirus; Tn5 (Trichoplusia ni) or TiniPro insect cells
In short: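 ATP 1 μM, PI 10 μg/mL, PI3Kδ construct BV1060 10 nM (final); 10 mM Tris pH 7.5, 3 mM MgCl2, 50 mM NaCl, 0.05% CHAPS, 1 mM DTT; 60 min RT; Kinase-Glo stop, luminescence.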

[1] = system: PKB Ser473 phosphorylation in Rat1-myr-HA-p110 beta cells; test: Reverse protein array assay, PKB Ser473 phosphorylation in Rat1-myr-p110 beta cells; assay type: cell-based; settings: 0.5 h, pAkt Ser473, 30 minutes incubation, read-out: p-PKB IC50
In short: (§1)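 Cells: Rat1-myr-HA-p110 alpha/beta/delta, seeded ≥20 h. Lysis on ice 10 min; reverse-phase protein array, 4 lysate dilutions; fluorescence read, relative intensity.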

[2] = system: PKB Ser473 phosphorylation in Rat1-myr-HA-p110 delta cells; test: Reverse protein array assay, PKB Ser473 phosphorylation in Rat1-myr-p110 delta cells; assay type: cell-based; settings: read-out: p-PKB IC50
In short: as §1

T1 sequence (O00329 with tags, fused parts or gaps limits assumed): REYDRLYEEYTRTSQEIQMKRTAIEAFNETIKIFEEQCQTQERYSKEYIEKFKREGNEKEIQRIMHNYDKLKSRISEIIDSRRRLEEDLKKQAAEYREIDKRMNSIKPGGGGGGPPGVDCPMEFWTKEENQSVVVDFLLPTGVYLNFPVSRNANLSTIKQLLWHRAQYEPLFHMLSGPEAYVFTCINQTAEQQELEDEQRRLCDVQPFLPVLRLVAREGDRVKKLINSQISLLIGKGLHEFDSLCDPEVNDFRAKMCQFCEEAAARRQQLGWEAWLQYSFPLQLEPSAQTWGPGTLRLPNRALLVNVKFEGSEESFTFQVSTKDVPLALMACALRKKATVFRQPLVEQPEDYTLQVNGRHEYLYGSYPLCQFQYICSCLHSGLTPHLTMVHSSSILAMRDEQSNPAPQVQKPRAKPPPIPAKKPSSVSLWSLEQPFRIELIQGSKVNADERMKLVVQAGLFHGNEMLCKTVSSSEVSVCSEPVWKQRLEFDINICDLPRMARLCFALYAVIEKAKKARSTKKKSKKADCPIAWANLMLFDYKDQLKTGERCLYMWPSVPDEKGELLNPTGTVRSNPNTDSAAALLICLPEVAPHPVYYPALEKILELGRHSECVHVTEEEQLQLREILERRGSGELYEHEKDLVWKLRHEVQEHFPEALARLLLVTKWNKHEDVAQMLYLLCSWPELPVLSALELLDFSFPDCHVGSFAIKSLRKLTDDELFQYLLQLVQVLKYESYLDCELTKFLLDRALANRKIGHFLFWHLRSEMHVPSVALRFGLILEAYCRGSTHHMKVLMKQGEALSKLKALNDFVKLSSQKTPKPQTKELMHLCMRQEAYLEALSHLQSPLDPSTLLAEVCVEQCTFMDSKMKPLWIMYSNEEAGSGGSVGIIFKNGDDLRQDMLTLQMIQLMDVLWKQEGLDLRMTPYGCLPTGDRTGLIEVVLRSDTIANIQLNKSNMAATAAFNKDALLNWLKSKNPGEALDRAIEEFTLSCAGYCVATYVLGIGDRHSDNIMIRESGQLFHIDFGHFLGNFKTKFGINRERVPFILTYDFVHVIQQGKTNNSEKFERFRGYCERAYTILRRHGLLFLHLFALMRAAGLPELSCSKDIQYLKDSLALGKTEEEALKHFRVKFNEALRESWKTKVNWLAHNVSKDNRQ

IC50 (PI3K delta) [nM]	IC50 [1] [nM]	IC50 [2] [nM]	Structure (SMILES)
19	161	249	Cc1nn(C)cc1-n1c(=O)n(C)c2cnc3ccc(-c4cncc(C(C)O)c4)cc3c21 (racemic) [Example 217, (rac)-1-(1,3-Dimethyl-1H-pyrazol-4-yl)-8-[5-(1-hydroxy-ethyl)-pyridin-3-yl]-3-methyl-1,3-dihydro-imidazo[4,5-c]quinolin-2-one]
18	113	140	COc1ccc(-c2ccc3ncc4c(c3c2)n(-c2c(C)nn(C)c2C)c(=O)n4C)cc1OC [Example 1.9, 8-(3,4-Dimethoxy-phenyl)-3-methyl-1-(1,3,5-trimethyl-1H-pyrazol-4-yl)-1,3-dihydro-imidazo[4,5-c]quinolin-2-one]
34	23	37	CCOc1ccc(-c2ccc3ncc4c(c3c2)n(-c2cn(C)nc2Cl)c(=O)n4C)cn1 [Example 3.8, 1-(3-Chloro-1-methyl-1H-pyrazol-4-yl)-8-(6-ethoxy-pyridin-3-yl)-3-methyl-1,3-dihydro-imidazo[4,5-c]quinolin-2-one]
89	110	155	Cc1c(-n2c(=O)n(C)c3cnc4ccc(-c5ccc(N(C)C)nc5)cc4c32)cnn1C [Example 4.4, 8-(6-Dimethylamino-pyridin-3-yl)-1-(1,5-dimethyl-1H-pyrazol-4-yl)-3-methyl-1,3-dihydro-imidazo[4,5-c]quinolin-2-one]
28	43	90	Cc1nn(C(C)C)cc1-n1c(=O)n(C)c2cnc3ccc(-c4cnc(N(C)C)nc4)cc3c21 [Example 6.1, 8-(2-Dimethylamino-pyrimidin-5-yl)-1-(1-isopropyl-3-methyl-1H-pyrazol-4-yl)-3-methyl-1,3-dihydro-imidazo[4,5-c]quinolin-2-one]
112	58	197	Cc1nn(C)cc1-n1c(=O)n(C)c2cnc3ccc(-c4cccnc4)cc3c21 [Example 10.2, 1-(1,3-Dimethyl-1H-pyrazol-4-yl)-3-methyl-8-pyridin-3-yl-1,3-dihydro-imidazo[4,5-c]quinolin-2-one]
32		247	Cc1nn(CC(=O)N(C)C)c(C)c1-n1c(=O)n(C)c2cnc3ccc(-c4cnc(N)c(C(F)(F)F)c4)cc3c21 [Example 25.2, 2-{4-[8-(6-Amino-5-trifluoromethyl-pyridin-3-yl)-3-methyl-2-oxo-2,3-dihydro-imidazo[4,5-c]quinolin-1-yl]-3,5-dimethyl-pyrazol-1-yl}-N,N-dimethyl-acetamide]
46	73	59	Cc1nn(C)c(C)c1-n1c(=O)n(C)c2cnc3ccc(-c4cnc(N)c(C(F)(F)F)c4)cc3c21 [Example 25.3, 8-(6-Amino-5-trifluoromethyl-pyridin-3-yl)-3-methyl-1-(1,3,5-trimethyl-1H-pyrazol-4-yl)-1,3-dihydro-imidazo[4,5-c]quinolin-2-one]
4	7	9	Cc1nn(C(C)C)cc1-n1c(=O)n(C)c2cnc3ccc(-c4cnc(N)c(C(F)(F)F)c4)cc3c21 [Example 25.4, 8-(6-Amino-5-trifluoromethyl-pyridin-3-yl)-1-(1-isopropyl-3-methyl-1H-pyrazol-4-yl)-3-methyl-1,3-dihydro-imidazo[4,5-c]quinolin-2-one]
24	6	8	Cc1nn(C)cc1-n1c(=O)n(C)c2cnc3ccc(-c4cnc5[nH]ccc5c4)cc3c21 [Example 36, 1-(1,3-dimethyl-1H-pyrazol-4-yl)-3-methyl-8-(1H-pyrrolo[2,3-b]pyridin-5-yl)-1,3-dihydro-imidazo[4,5-c]quinolin-2-one]
371	119	570	Cc1nn(C)cc1-n1c(=O)n(C)c2cnc3ccc(-c4ccc5c(c4)CCN5C)cc3c21 [Example 50, 1-(1,3-Dimethyl-1H-pyrazol-4-yl)-3-methyl-8-(1-methyl-2,3-dihydro-1H-indol-5-yl)-1,3-dihydro-imidazo[4,5-c]quinolin-2-one]
598		223	Cc1nn(CC(=O)N(C)C)c(C)c1-n1c(=O)n(C)c2cnc3ccc(-c4ccc(-n5cccn5)cc4)cc3c21 [Example 51.4, 2-{3,5-Dimethyl-4-[3-methyl-2-oxo-8-(4-pyrazol-1-yl-phenyl)-2,3-dihydro-imidazo[4,5-c]quinolin-1-yl]pyrazol-1-yl}-N,N-dimethyl-acetamide]
132	21	54	CCCOc1ccc(-c2ccc3ncc4c(c3c2)n(-c2cn(C)nc2C)c(=O)n4C)cn1 [Example 55, 1-(1,3-Dimethyl-1H-pyrazol-4-yl)-3-methyl-8-(6-propoxy-pyridin-3-yl)-1,3-dihydro-imidazo[4,5-c]quinolin-2-one]
215	106	288	CCOc1cccc(-c2ccc3ncc4c(c3c2)n(-c2cn(C)nc2C)c(=O)n4C)c1 [Example 57, 1-(1,3-Dimethyl-1H-pyrazol-4-yl)-8-(3-ethoxy-phenyl)-3-methyl-1,3-dihydro-imidazo[4,5-c]quinolin-2-one]
7	383	177	Cc1ncc(-c2ccc3ncc4c(c3c2)n(-c2cn(C)nc2C)c(=O)n4C)cc1N(C)S(C)(=O)=O [Example 75, N-{5-[1-(1,3-Dimethyl-1H-pyrazol-4-yl)-3-methyl-2-oxo-2,3-dihydro-1H-imidazo[4,5-c]quinolin-8-yl]-2-methyl-pyridin-3-yl}-N-methyl-methanesulfonamide]

The remaining lines, values behind:

Structure (SMILES)	IC50 (PI3K delta) [nM]	IC50 [1] [nM]	IC50 [2] [nM]
COc1ccc(-c2ccc3ncc4c(c3c2)n(-c2ccnn2C)c(=O)n4C)cn1 [Example 2.2, 8-(6-Methoxy-pyridin-3-yl)-3-methyl-1-(2-methyl-2H-pyrazol-3-yl)-1,3-dihydro-imidazo[4,5-c]quinolin-2-one]	56	553	541
COc1ccc(-c2ccc3ncc4c(c3c2)n(-c2cnn(C)c2C)c(=O)n4C)cn1 [Example 2.9, 1-(1,5-Dimethyl-1H-pyrazol-4-yl)-8-(6-methoxy-pyridin-3-yl)-3-methyl-1,3-dihydro-imidazo[4,5-c]quinolin-2-one]	54	141	165
CCn1cc(-n2c(=O)n(C)c3cnc4ccc(-c5ccc(CO)nc5)cc4c32)c(C)n1 [Example 16.1, 1-(1-ethyl-3-methyl-1H-pyrazol-4-yl)-8-(6-hydroxymethyl-pyridin-3-yl)-3-methyl-1,3-dihydro-imidazo[4,5-c]quinolin-2-one]	25	34	130
Cc1nn(C)cc1-n1c(=O)n(C)c2cnc3ccc(-c4cncc(S(C)(=O)=O)c4)cc3c21 [Example 22, 1-(1,3-Dimethyl-1H-pyrazol-4-yl)-8-(5-methanesulfonyl-pyridin-3-yl)-3-methyl-1,3-dihydro-imidazo[4,5-c]quinolin-2-one]	9	148	297
Cc1noc(C)c1-n1c(=O)n(C)c2cnc3ccc(-c4cnc(N)c(C(F)(F)F)c4)cc3c21 [Example 25.5, 8-(6-Amino-5-trifluoromethyl-pyridin-3-yl)-1-(3,5-dimethyl-isoxazol-4-yl)-3-methyl-1,3-dihydro-imidazo[4,5-c]quinolin-2-one]	10	115	157
Cc1nn(C)cc1-n1c(=O)n(C)c2cnc3ccc(-c4cncnc4)cc3c21 [Example 26, 1-(1,3-Dimethyl-1H-pyrazol-4-yl)-3-methyl-8-pyrimidin-5-yl-1,3-dihydro-imidazo[4,5-c]quinolin-2-one]	336	226	450
Cc1nn(C)cc1-n1c(=O)n(C)c2cnc3ccc(-c4cc(O)cc(C(F)(F)F)c4)cc3c21 [Example 34, 1-(1,3-Dimethyl-1H-pyrazol-4-yl)-8-(3-hydroxy-5-trifluoromethyl-phenyl)-3-methyl-1,3-dihydro-imidazo[4,5-c]quinolin-2-one]	7	153	202
Cc1nn(C)cc1-n1c(=O)n(C)c2cnc3ccc(-c4ccc(OCC5CC5)nc4)cc3c21 [Example 42, 8-(6-Cyclopropylmethoxy-pyridin-3-yl)-1-(1,3-dimethyl-1H-pyrazol-4-yl)-3-methyl-1,3-dihydro-imidazo[4,5-c]quinolin-2-one]	441	66	158
CNC(=O)c1ccc(-c2ccc3ncc4c(c3c2)n(-c2cn(C)nc2Cl)c(=O)n4C)cc1 [Example 43.2, 4-[1-(3-Chloro-1-methyl-1H-pyrazol-4-yl)-3-methyl-2-oxo-2,3-dihydro-1H-imidazol[4,5-c]quinolin-8-yl]-N-methyl-benzamide]	34	< 5	12
COc1ncc(-c2ccc3ncc4c(c3c2)n(-c2cn(C)nc2C)c(=O)n4C)cc1N(C)C(C)=O [Example 62, N-{5-[1-(1,3-Dimethyl-1H-pyrazol-4-yl)-3-methyl-2-oxo-2,3-dihydro-1H-imidazo[4,5-c]quinolin-8-yl]-2-methoxy-pyridin-3-yl}-N-methyl-acetamide]	16	516	276
CNc1ncc(-c2ccc3ncc4c(c3c2)n(-c2c(C)nn(C)c2C)c(=O)n4C)cn1 [Example 80.2]	25	196	323
